Measured values from patent US6162811A, “Ellipticine compounds” (Adir et Compagnie, priority 1996, dated 2000).
Counter-ions that a name gives are not always drawn. Like-named read-outs stand apart in the source and are kept apart here.

Key:
[1] = system: human epidermoid carcinoma, KB-3-1; experiment: In vitro cytotoxicity, Microculture Tetrazolium Assay, KB-3-1; format: cell-based
Protocol: (§1) A/In Vitro Activity: Cytotoxicity
(§2) Four cell lines were used:
(§3) The cells are distributed onto microplates and exposed to the cytotoxic compounds. The cells are then incubated for 2 days (P388) or 4 days (LLC, KB-A1, KB-3-1).

[2] = system: KB-A1 (multi-drug resistant line induced by adriamycin); experiment: In vitro cytotoxicity, Microculture Tetrazolium Assay, KB-A1 (adriamycin-resistant); format: cell-based; settings: Homo sapiens
Protocol: as §1, §2
the corresponding resistant line, KB-A1, the multi-drug resistance of which was induced by adriamycin (ADR).
as §3

murine leukaemia P388 = experiment: In vitro cytotoxicity, Microculture Tetrazolium Assay, P388; format: cell-based; settings: Mus musculus
Protocol: as §1, §2, §3

[3] = system: murine lung carcinoma, Lewis Lung Carcinoma (LLC); experiment: In vitro cytotoxicity, Microculture Tetrazolium Assay, LLC; format: cell-based; settings: Mus musculus, 96 h
Protocol: as §1, §2
1 murine lung carcinoma, Lewis Lung Carcinoma (LLC),
as §3

[4] = system: human lung carcinoma NCI-H460; experiment: Anti-tumour activity in an orthotopic model of human lung carcinoma NCI-H460 implanted intrapleurally; format: in vivo, human (tumour line, in female Nude Balb/C mice); settings: for toxicity of the dose: dihydrochloride
Protocol: 2/Anti-tumour Activity of the Compounds in an Orthotopic Model of Human Lung Carcinoma NCI-H460 Implanted Intrapleurally
The line NCI-H460, which originates from a human lung carcinoma of "not small cell" type, was supplied by the American Type Culture Collection (Frederick, USA). The cells are cultured in vitro in complete RPMI 1640 medium in Falcon flasks. On the day of the implantation, the cells are separated using trypsin, centrifuged and suspended in complete culture medium. The cells are then implanted in the pleural cavity of female Nude Balb/C mice (10^6 cells per mouse). The products are administered i.v. to groups of 6 animals on days 7 and 14 at the doses indicated. The anti-tumour activity is expressed in % T/C as defined above.
Table 3 lists the results obtained with the compound of Example 3 of the present Application (especially representative of the invention) and with the closest compound of the prior art as reference product.

leukaemia P388 = experiment: Anti-tumour activity on leukaemia P388 (i.p.) in female BDF1 mice; format: in vivo, murine (female BDF1 mice)
Protocol: 1/Anti-tumour Activity of the Compounds on Leukaemia P388
The line P388 (murine leukaemia) was supplied by the National Cancer Institute (Frederick, USA). The tumour cells (10^6 cells) were injected on day 0 into the peritoneal cavity of female BDF1 mice (Iffa-Credo, France) weighing from 18 to 20 g (groups of 6 or 7 animals).
The products were administered intravenously, at the doses indicated, on day 1 or on days 1, 5 and 9.
The anti-tumour activity is expressed in % T/C: [formula]
The number of animals surviving 60 days (long-term survival) is indicated.
By way of example, Table 2 gives the results obtained with the compound of Example 32 which is especially representative of the invention.

[5] = 96 h, KB-3-1, 4 days incubation, read-out: IC50
[6] = 96 h, KB-A1, 4 days incubation, read-out: IC50
[7] = 48 h, P388, 2 days incubation, read-out: IC50
[8] = LLC, 4 days incubation, read-out: IC50
[9] = i.v. on days 7 and 14, 56.5 mg/kg
[10] = i.v. on days 7 and 14, 80 mg/kg
[11] = i.v. on days 7 and 14, 113 mg/kg

COc1cccc2c1C(=O)c1c(O)c3c(c(O)c1C2=O)C[C@@](O)(C(=O)CO)C[C@@H]3O[C@H]1C[C@H](N)[C@H](O)[C@H](C)O1 [ADR, adriamycin, reference compound]
IC50 ([1]; KB 3-1, 96 h): 17.3 nM
IC50 ([2]; KB-A1, 96 h): 6690 nM
IC50 (murine leukaemia P388; P388, 48 h): 18.1 nM
IC50 [3]: 19.3 nM

CC(=O)Oc1ccc2c(c1)c1cc3c(C(=O)NCCN(C)C)nccc3c(C)c1n2C [Example 2, 1-[(2-Dimethylaminoethyl)aminocarbonyl]-5,6-dimethyl-9-acetoxy-6H-pyrido-[4,3-b]carbazole]
IC50 [1, 5]: 36.1 nM
IC50 [2, 6]: 758 nM
IC50 (murine leukaemia P388; [7]): 5.8 nM
IC50 [3, 8]: 13.5 nM

Cc1c2ccnc(C(=O)NCCN(C)C)c2cc2c3cc(OC(=O)CCCC(=O)O)ccc3n(C)c12.Cl.Cl [Example 3, 1-[(2-Dimethylaminoethyl)aminocarbonyl]-5,6-dimethyl-9-(4-carboxybutanoyloxy)-6H-pyrido-[4,3-b]carbazole dihydrochloride]
IC50 [1, 5]: 74.2 nM
IC50 [2, 6]: 923 nM
IC50 (murine leukaemia P388; [7]): 7.1 nM
increase in survival of the animals ([4]; administered twice at 160 mg/kg i.v.): 81%
tolerability ([4]; even at a strong dose, i.v.): very well tolerated
therapeutic index ([4]; i.v.): excellent
anti-tumour activity ([4]; i.v. on days 7 and 14): active
T/C % [4, 9]: 133%
T/C % [4, 10]: 147%
T/C % [4, 11]: 174%
T/C % ([4]; i.v. on days 7 and 14, 160 mg/kg): 181%
IC50 [3, 8]: 43.2 nM

Cc1c2ccnc(C(=O)NCCN(C)C)c2cc2c3cc(OC(=O)CCCCC(=O)O)ccc3n(C)c12 [Example 32, 1-[(2-Dimethylaminoethyl)aminocarbonyl]-5,6-dimethyl-9-(5-carboxypentanoyloxy)-6H-pyrido[4,3-b]carbazole]
IC50 [1, 5]: 40.6 nM
IC50 [2, 6]: 758 nM
IC50 (murine leukaemia P388; [7]): 5.1 nM
tolerability (leukaemia P388; even at a very high dose, i.v.): well tolerated
weight loss and premature death (leukaemia P388; even at a very high dose, i.v.): neither significant weight loss nor premature death
general toxicity (leukaemia P388; i.v.): very low general toxicity
therapeutic index (leukaemia P388; i.v.): excellent therapeutic index
T/C % (leukaemia P388; i.v. on D1, 20 mg/kg): 125%
T/C % (leukaemia P388; i.v. on D1, 40 mg/kg): 154%
T/C % (leukaemia P388; i.v. on D1, 80 mg/kg): 186%
T/C % (leukaemia P388; i.v. on D1, 160 mg/kg): 233%
T/C % (leukaemia P388; i.v. on D1, 240 mg/kg): > 600%
number of animals surviving 60 days (cured) (leukaemia P388; i.v. on D1, 240 mg/kg): 4/7
T/C % (leukaemia P388; i.v. on D1, 320 mg/kg): > 600%
number of animals surviving 60 days (cured) (leukaemia P388; i.v. on D1, 320 mg/kg): 6/7
T/C % (leukaemia P388; i.v. on D1, 5 and 9, 10 mg/kg): 137%
T/C % (leukaemia P388; i.v. on D1, 5 and 9, 20 mg/kg): 171%
T/C % (leukaemia P388; i.v. on D1, 5 and 9, 40 mg/kg): 236%
T/C % (leukaemia P388; i.v. on D1, 5 and 9, 80 mg/kg): > 600%
number of animals surviving 60 days (cured) (leukaemia P388; i.v. on D1, 5 and 9, 80 mg/kg): 6/7
T/C % (leukaemia P388; i.v. on D1, 5 and 9, 160 mg/kg): > 600%
number of animals surviving 60 days (cured) (leukaemia P388; i.v. on D1, 5 and 9, 160 mg/kg): 6/7
IC50 [3, 8]: 3.5 nM

Cc1c2ccnc(C(=O)NCCN(C)C)c2cc2c3cc(O)ccc3n(C)c12 [Reference product, 1[(2dimethylaminoethyl)aminocarbonyl5,6-dimethyl-9-hydroxy-6H-pyrido-[4,3]carbazoledihydrochloride, reference compound]
mouse dead during the treatments ([4]; 113 mg/kg i.v., days 7 and 14): 1 mouse
toxicity of the dose ([4]; 113 mg/kg i.v., days 7 and 14): toxic dose
toxicity of the dose ([4]; 113 mg/kg i.v., days 7 and 14, listed as reference product): toxic
T/C % ([4]; i.v. on days 7 and 14, 40 mg/kg): 126%
T/C % [4, 9]: 145%
T/C % [4, 10]: 156%
T/C % [4, 11]: 186%
